In ChEMBL document CHEMBL1129165, “6-Deoxy-6-hydroxymethyl scyllo-inositol 1,2,4-trisphosphate: A potent agonist at the inositol 1,4,5-trisphosphate receptor” (Bioorg Med Chem Lett, 1996):

Species on record: Oryctolagus cuniculus
Assay: Compound was tested for its ability to release [Ca2+] from permeabilised rabbit platelets.
Format: functional, organism-based

Row | Structure (SMILES) | EC50 [nM] | EC50 (Oryctolagus cuniculus) [nM]
1 | O=P(O)(O)O[C@H]1C(O)[C@@H](OP(=O)(O)O)[C@H](OP(=O)(O)O)[C@@H](O)C1O (single isomer, unassigned) [INS(1,4,5)P3] | 1670 | 
2 | O=P(O)(O)OC1[C@@H](O)C(CO)C(OP(=O)(O)O)[C@H](OP(=O)(O)O)[C@@H]1O (stereo partly drawn) |  | 440
3 | O=P(O)(O)O[C@@H]1[C@@H](O)[C@@H](O)[C@@H](OP(=O)(O)O)C(O)[C@H]1OP(=O)(O)O (single isomer, unassigned) [INS(1,4,5)P3] | 400 | 
